Laboratory results from US20240417745A1, “SYSTEMS AND METHODS FOR SEEDLESS FRUIT TRAIT” (Duke University, priority 2023, published 2024).

System: −2 DAA WT ovaries
Assay: RNA-seq of −2 DAA WT ovaries treated with 2,4-D vs mock
Assay type: in vivo, Tomato (Solanum lycopersicum)
Conditions: 100 μM 2,4-D, fold change >1.5, p<0.05
Description: Tomato plants were grown in greenhouse with 16 h day/8 h night light cycle as described previously (Hu et al.). Parthenocarpy test was done as described previously in Hu et al., with some modifications: −2 DAA flowers on mature tomato plants (2-6 weeks after first flowering) were emasculated and recorded fruit growth 5 weeks later; fruit diameter of at least 1 cm was considered as parthenocarpy. For fruit yield analysis, the number of flowers were counted for each young flower cluster of ˜two-month-old plants, and fruits developed on these clusters were harvested individually and weighed when they were at the red ripe stage. Whole plant phenotypes including plant height, internode numbers and length, and leaf morphology were recorded 5 weeks after sowing. For 2,4-D treatment, 10 μl of 100 μM 2,4-D, or mock solvent (5% MeOH, 0.1% Tween-20) was applied to −2 DAA ovaries of emasculated flowers. All statistical analyses were performed using Student's t-test.
Total RNAs were purified from −2 DAA ovaries of WT and 8a-1 8b-1, as well as −2 DAA WT ovaries treated with 100 μM 2,4-D for 2/6/24 h or mock treated (5% methanol, 0.1% Tween 20). RNA-Seq cDNA libraries (three biological repeats) were prepared with the QuantSeq 3′mRNA-Seq library prep kit FWD for Illumina (Lexogen). DNA sequencing was performed with Illumina Next-Seq500 High-Output 75 bp SR. Sequence alignment and DE (differential expression) analysis were done online at lexogen.bluebee.com. Heatmap was created in RStudio with plotly package. Co-regulated genes among 8a 8b and +2,4-D 2/6/24 h gene lists were then identified (fold change >1.5; p<0.1 for 8a 8b vs. WT; p<0.05 for +2,4-D vs. mock). Venn Diagrams were made using online tool at InteractiVenn.net^53. GO analysis was performed using agriGO v2 toolkit (Tian et al. agriGO v2.0: a GO analysis toolkit for the agricultural community, 2017 update. Nucleic Acids Res 45, W122-W129, (2017)). Heatmap analysis was made in R language with the plotly package. […]

Q: With `O=C(O)COc1ccc(Cl)cc1Cl` [2,4-D] as the compound, how does the “number of auxin-responsive differentially expressed genes (DEG)” value (2 h treatment vs mock) read?
A: 1731

Q: What about the “number of auxin-responsive differentially expressed genes (DEG)” value (6 h treatment vs mock) of the same compound?
A: 3262

Q: What about the “number of auxin-responsive differentially expressed genes (DEG)” value (24 h treatment vs mock) of the same compound?
A: 3212
